The experiment addresses T1, AIK (Homo sapiens, UniProt O14965).
T1 sequence (O14965 1-403): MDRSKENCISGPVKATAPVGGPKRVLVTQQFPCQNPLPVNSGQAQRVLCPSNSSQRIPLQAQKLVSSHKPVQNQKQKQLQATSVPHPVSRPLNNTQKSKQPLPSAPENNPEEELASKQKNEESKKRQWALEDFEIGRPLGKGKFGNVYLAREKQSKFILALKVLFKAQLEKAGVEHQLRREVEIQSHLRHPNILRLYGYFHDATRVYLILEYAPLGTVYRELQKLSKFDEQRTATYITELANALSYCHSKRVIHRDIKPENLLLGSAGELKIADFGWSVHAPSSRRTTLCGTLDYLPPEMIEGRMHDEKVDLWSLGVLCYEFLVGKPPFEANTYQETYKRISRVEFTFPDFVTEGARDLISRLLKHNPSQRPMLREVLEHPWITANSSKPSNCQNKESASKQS
In words: Determination of inhibition of AIK by direct fluorescence polarization (IMAP). Format: biochemical. The note with it: FP assay, 2.5 μM ATP, 2.5 nM AIK; read-out: IC50 of Exemplified Compounds Against AIK. On the procedure: The inhibitory properties of compounds relative to AIK may be determined by the Direct Fluorescence Polarization detection method (FP) using a Greiner small volume black 384-well-plate format under the following reaction conditions: 50 mM Hepes pH 7.3, 10 mM MgCl2, 10 mM NaCl, 1 mM DTT, 0.01% Brij35, 100 nM Fluorescein-LRRASLG peptide (provided by SYNPEP), 5% DMSO, 2.5 μM ATP. Detection of the reaction product is performed by addition of IMAP binding reagent (Molecular Devices). Reaction product may be determined quantitatively by FP using an Analyst HT plate reader (Molecular Devices) with an excitation wavelength at 485 nm and emission at 530 nm and using a Fluorescein 505 dichroic mirror.
The assay reaction may be initiated as follows: 2 ul of (3×) 300 nM Fl-Peptide/7.5 uM ATP was added to each well of the plate, followed by the addition of 2 ul of (3×) inhibitor (2.5 fold serial dilutions for 11 data points for each inhibitor) containing 15% DMSO. 2 ul of (3×) 7.5 nM AIK solution may be added to initiate the reaction (final enzyme concentration was 2.5 nM for AIK). The reaction mixture may then be incubated at room temperature for 45 min, and quenched and developed by addition of 20 ul of 1 to 400 diluted IMAP binding reagent in 1× proprietary IMAP binding buffer. Fluorescence polarization readings of the resulting reaction mixtures may be measured after a 60-minute incubation at room temperature.
IC50 values may be calculated by non-linear curve fitting of the compound concentrations and fluorescent polarization values to the standard IC50 equation.
With `CNS(=O)(=O)c1cccc(-c2ccc(C)c3[nH]c4ncc(C)cc4c23)c1` [Compound 15, 3-(3,8-dimethyl-9H-pyrido[2,3-b]indol-5-yl)-N-methylbenzenesulfonamide], the 50% inhibitory concentration (IC50) is below 20 nM. Consider `CCS(=O)(=O)c1cccc(-c2ccc(C)c3[nH]c4ncccc4c23)c1` [Compound 17, 5-(3-(ethylsulfonyl)phenyl)-8-methyl-9H-pyrido[2,3-b]indole], for which the IC50 fell in the range of 20 to 50 nM. As to `CCS(=O)(=O)c1cccc(-c2cnc(NCCN(C)C)c3[nH]c4ncc(C)cc4c23)c1` [Compound 41, N′-[5-(3-Ethanesulfonyl-phenyl)-3-methyl-9H-dipyrido[2,3-b;4′,3′-d]pyrrol-8-yl]-N,N-dimethyl-ethane-1,2-diamine], the half-maximal inhibitory concentration (IC50) lay within 50 to 100 nM.

On to `CCS(=O)(=O)c1cccc(-c2cnc(C#N)c3[nH]c4ncc(C)cc4c23)c1` [Compound 48, 5-(3-Ethanesulfonyl-phenyl)-3-methyl-9H-dipyrido[2,3-b;4′,3′-d]pyrrole-8-carbonitrile], for which the IC50 is above 100 nM.

As for `CCOc1ncc(-c2cccc(S(=O)(=O)CC)c2)c2c1[nH]c1ncc(C)cc12` [Compound 50, 5-(3-Ethanesulfonyl-phenyl)-8-ethoxy-3-methyl-9H-dipyrido[2,3-b;4′,3′-d]pyrrole], the IC50 is below 20 nM. With `CCS(=O)(=O)c1cccc(-c2cnc(OCC3CCN(C)CC3)c3[nH]c4ncc(C)cc4c23)c1` [Compound 53, 5-(3-Ethanesulfonyl-phenyl)-3-methyl-8-(1-methyl-piperidin-4-ylmethoxy)-9H-dipyrido[2,3-b;4′,3′-d]pyrrole], the IC50 was below 20 nM.

For the compound `CCS(=O)(=O)c1cccc(-c2cc(C(=O)NCCN(C)C)c(C)c3[nH]c4ncc(C)cc4c23)c1` [Compound 87, N-(2-(dimethylamino)ethyl)-5-(3-(ethylsulfonyl)phenyl)-3,8-dimethyl-9H-pyrido[2,3-b]indole-7-carboxamide], the half-inhibitory concentration (IC50) fell in the range of 20 to 50 nM.

Turning to `CCS(=O)(=O)c1cccc(-c2cc(C(=O)NCCOCCO)c(C)c3[nH]c4ncc(C)cc4c23)c1` [Compound 110], the IC50 is below 20 nM.

Consider `Cc1cnc2[nH]c3c(C)c(C(=O)NCCN(C)C)cc(-c4cccc(NC(=O)C5CC5)c4)c3c2c1` [Compound 111, 5-(3-(cyclopropanecarboxamido)phenyl)-N-(2-(dimethylamino)ethyl)-3,8-dimethyl-9H-pyrido[2,3-b]indole-7-carboxamide], for which the IC50 lay in the range of 20 to 50 nM. Next, `Cc1cnc2[nH]c3c(C)c(C(=O)NCCN(C)C)cc(Cl)c3c2c1` [Compound 120, 5-chloro-N-(2-(dimethylamino)ethyl)-3,8-dimethyl-9H-pyrido[2,3-b]indole-7-carboxamide]: above 100 nM. With `COc1ccc(Cl)cc1Nc1ncc(C)cc1Br` [Compound 154, 3-bromo-N-(5-chloro-2-methoxyphenyl)-5-methylpyridin-amine], the half-inhibitory concentration (IC50) was below 20 nM. Next, `COc1ccc(-c2cccc(NC(C)=O)c2)c2c1[nH]c1ncc(C)cc12` [Compound 161, N-(3-(8-methoxy-3-methyl-9H-pyrido[2,3-b]indol-5-yl)phenyl)acetamide]: 50 to 100 nM; `Cc1cnc(Nc2cc(Cl)ccc2OCC2CCN(C)CC2)c(Br)c1` [Compound 174, 3-bromo-N-(5-chloro-2-((1-methylpiperidin-4-yl)methoxy)phenyl)-5-methylpyridin-2-amine]: below 20 nM. As for `Cc1cnc2[nH]c3c(OCC4CCN(C)CC4)ccc(Cl)c3c2c1` [Compound 175, 5-chloro-3-methyl-8-((1-methylpiperidin-4-yl)methoxy)-9H-pyrido[2,3-b]indole], the IC50 was in the range of 50 to 100 nM. Next, `CCS(=O)(=O)c1cccc(-c2ccc(OCC3CCN(C)CC3)c(I)c2)c1` [Compound 197, 4-((3′-(ethylsulfonyl)-3-iodobiphenyl-4-yloxy)methyl)-1-methylpiperidine]: below 20 nM; `CCS(=O)(=O)c1cccc(-c2ccc(OCC3CCN(C)CC3)c3[nH]c4ncc(Cl)cc4c23)c1` [Compound 199, 3-chloro-5-(3-(ethylsulfonyl)phenyl)-8-((1-methylpiperidin-4-yl)methoxy)-9H-pyrido[2,3-b]indole]: 20 to 50 nM; `CCS(=O)(=O)c1cccc(-c2cc(F)c(OCCN(C)C)c3[nH]c4ncc(C)cc4c23)c1` [Compound 203, 2-(5-(3-(ethylsulfonyl)phenyl)-7-fluoro-3-methyl-9H-pyrido[2,3-b]indol-8-yloxy)-N,N-dimethylethanamine]: below 20 nM. For the compound `CCS(=O)(=O)c1cccc(-c2ccc(OC)c3[nH]c4ncc(Cl)cc4c23)c1` [Compound 217], the IC50 was below 20 nM. For the compound `CCS(=O)(=O)c1cccc(-c2cc(NC(=O)CCN(C)C)c(OC)c3[nH]c4ncc(C)cc4c23)c1` [Compound 240, 3-(dimethylamino)-N-(5-(3-(ethylsulfonyl)phenyl)-8-methoxy-3-methyl-9H-pyrido[2,3-b]indol-7-yl)propanamide], the concentration for half-maximal inhibition (IC50) fell in the range of 20 to 50 nM.

The record behind these values is patent US8119655B2, “Kinase inhibitors” (Takeda Pharmaceutical Company Limited, priority 2005, dated 2012).
